What all share (assay): growth of human tumour cells (NCI), 48 h
Assay [1] concerns CCRF-CEM leukemia.
The test system of assay [2] is HCT-116 colon.
For assay [3], the system named is LOX IMVI melanoma.
Assay [4] deals with NCI-H460 lung.
Assay [5] concerns OVCAR-8 ovarian.
In assay [6] the test system is SK-MEL-28 melanoma.
The subject of assay [7] is U251 CNS.
Assay [8] concerns UACC-62 melanoma.

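Step 1: Grow cells in 96-well plates. Step 2: Expose to compound for 48 hours at 5 concentrations. Step 3: Interpolate endpoints linearly; if unreached, use highest concentration. At the GI50, growth is halved. Definition used: TGI = concentration required for complete inhibition of growth.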

As to `O=C(CN1C(=O)S/C(=C\C(Cl)=C\c2ccccc2)C1=O)NCCc1ccc(O)cc1`, the GI50 in assay [1] is 2.16 µM; in assay [2], 1.42 µM; in assay [3] it was 1.42 µM; in assay [4] it was 2 µM; in assay [5] it was 2.97 µM; in assay [6] it was 1.73 µM. The results for the GI50 in assay [7] and in assay [8] were 2 µM and 1.7 µM, respectively. The TGI in assay [1] was greater than 100 µM; in assay [2], 3.1 µM; in assay [3] it was 2.85 µM; in assay [4], 6.12 µM; in assay [5], greater than 100 µM; in assay [6] it was 3.44 µM. The TGI was 5.16 µM in assay [7] and 3.96 µM in assay [8].

Consider `COc1cccc(Cn2c(-c3nonc3NC(C)=O)nc3ccccc32)c1`, for which the GI50 in assay [1] was greater than 100 µM; in assay [2], 4.94 µM; in assay [3], 6.1 µM; in assay [4], 2.45 µM; in assay [5], 6.3 µM; in assay [6], 6.17 µM. In addition, the GI50 in assay [7] is 3.94 µM; in assay [8], 3.37 µM. Besides, the TGI in assay [1], in assay [2], in assay [3], in assay [4], in assay [5] and in assay [6] was greater than 100 µM in each case. Also, the values for the TGI in assay [7] and in assay [8] were 35.5 µM and greater than 100 µM, respectively.

Take `OCC1OC2OC3C(CO)OC(OC4C(CO)OC(OC5C(CO)OC(OC6C(CO)OC(OC7C(CO)OC(OC1C(O)C2O)C(O)C7O)C(O)C6O)C(O)C5O)C(O)C4O)C(O)C3O` (centres undefined) (tested in a mixture with another compound): the TGI in assay [1], in assay [2], in assay [3], in assay [4], in assay [5] and in assay [6] was greater than 100 µM throughout. Further, the TGI in assay [7] and in assay [8] was greater than 100 µM throughout.

For `Cc1nn(-c2ccccc2)c2nc3c(nc12)C1=NCCN1C(c1ccc(Cl)cc1)N3` (centres undefined), the GI50 in assay [1] is 2.69 µM; in assay [2], 2.16 µM; in assay [3], 1.94 µM; in assay [4] it was 2.19 µM; in assay [5], 6.29 µM; in assay [6], 1.78 µM. Also, the results for the GI50 in assay [7] and in assay [8] were 2.21 µM and 1.95 µM, respectively. Also, the TGI in assay [1] was determined as 7.85 µM; in assay [2], 4.86 µM; in assay [3], 3.91 µM; in assay [4] it was 5.03 µM; in assay [5] it was 21 µM; in assay [6], 3.37 µM. Besides, the TGI in assay [7] came out at 5.98 µM; in assay [8], 3.8 µM.

For the molecule `O=C(O)c1ccccc1-c1ccccc1C(=O)Nc1ccc2c(c1)[nH]c(=O)c1ccccc12`, the TGI in assay [1], in assay [2], in assay [3], in assay [4], in assay [5] and in assay [6] was greater than 100 µM each time. In addition, the TGI in assay [7] and in assay [8] was greater than 100 µM in each case.

Turning to `O=C1/C(=C/c2ccccc2F)CN(C(=O)C(Cl)Cl)C/C1=C\c1ccccc1F`, the GI50 is 0.106 µM in assay [1]; 0.131 µM in assay [2]; 0.11 µM in assay [3]; 0.55 µM in assay [4]; 0.313 µM in assay [5]; 0.477 µM in assay [6]. Further, the GI50 was 0.213 µM in assay [7] and 0.378 µM in assay [8]. Also, the TGI in assay [1] was greater than 100 µM; in assay [2] it was 0.286 µM; in assay [3], 0.297 µM; in assay [4], 2.24 µM; in assay [5] it was 1.11 µM; in assay [6], 1.47 µM. Further, the results for the TGI in assay [7] and in assay [8] were 0.665 µM and 1.08 µM, respectively.

`COc1cc(C2CC(c3ccccc3)=NN2C(C)=O)cc(OC)c1OC` (centres undefined): the GI50 in assay [1] was 3.09 µM; in assay [2] it was 2.83 µM; in assay [3] it was 6.38 µM; in assay [4] it was 3.55 µM; in assay [5] it was 7.43 µM; in assay [6] it was 6.48 µM. Further, the GI50 in assay [7] is 3.93 µM; in assay [8], 4.2 µM. For the same molecule, the TGI was greater than 100 µM in assay [1]; greater than 100 µM in assay [2]; greater than 100 µM in assay [3]; greater than 51 µM in assay [4]; greater than 100 µM in assay [5]; greater than 100 µM in assay [6]. Moreover, the TGI in assay [7] and in assay [8] was greater than 100 µM throughout.

For `COc1cc(-n2cnc(-c3ccc(Cl)cc3)c2)cc(OC)c1OC`, the GI50 in assay [1] is 21.4 µM; in assay [2], greater than 100 µM; in assay [3] it was 18 µM; in assay [4] it was 18.6 µM; in assay [5], greater than 100 µM; in assay [6], 15.5 µM. In addition, the figures for the GI50 in assay [7] and in assay [8] were 22.2 µM and 62.4 µM, respectively. Also, the TGI in assay [1] is 44.8 µM; in assay [2] it was greater than 100 µM; in assay [3], 34.3 µM; in assay [4], 36.8 µM; in assay [5] it was greater than 100 µM; in assay [6], 29.7 µM. For the same molecule, the TGI in assay [7] was 57.8 µM; in assay [8], greater than 100 µM.

Turning to `CCn1c(-c2nonc2N)nc2cncc(C(=O)NCCNC)c21`, the GI50 in assay [1] was greater than 19.9 µM; in assay [2], 2.78 µM; in assay [3] it was greater than 25 µM; in assay [4], 8.59 µM; in assay [5], 15.3 µM; in assay [6], 12.9 µM. For the same molecule, the GI50 in assay [7] is greater than 25 µM; in assay [8], 13.6 µM. Further, the TGI in assay [1], in assay [2], in assay [3], in assay [4], in assay [5] and in assay [6] was greater than 25 µM each time. The TGI in assay [7] and in assay [8] was greater than 25 µM in each case.

In the case of `Cc1ccc(NC2=C(Cl)C(=O)N(Cc3ccccc3)C2=O)cc1Cl`, the GI50 in assay [1] was 4.23 µM; in assay [2], 3.01 µM; in assay [3], 2.53 µM; in assay [4], 6.78 µM; in assay [5], 2.32 µM; in assay [6], 12.9 µM. Besides, the GI50 in assay [7] was 3.75 µM; in assay [8], 3.85 µM. Further, the TGI in assay [1] is 19.4 µM; in assay [2], 12.5 µM; in assay [3] it was 14.2 µM; in assay [4] it was 23.6 µM; in assay [5], 9.93 µM; in assay [6], 29.3 µM. Moreover, the figures for the TGI in assay [7] and in assay [8] were 15.9 µM and 16.8 µM, respectively.

Source of the values: PubChem BioAssay (NCI).
